The source of these data is patent publication US12558345B2, “CHK1/2 inhibitors for use in the treatment of neuroblastomas and/or soft tissue sarcomas” (Eli Lilly and Company, priority 2015, dated 2026).

Like-named read-outs stand apart in the source and are kept apart here.

Test [1] deals with SJCRH-30 RMS xenograft. The format is in vivo. The conditions noted are these: SJCRH-30, RMS.
Experimental: Expand human RMS cancer cells SJCRH-30 (St. Jude Children's Research Hospital) in culture, harvest, and inject 5×10^6 cells in 200 μL of HBSS subcutaneously into the right rear flank of female athymic nude mice (20-22 g, Harlan Laboratories).
For all studies, measure tumor growth and body weight twice per week beginning on the seventh day after implantation. When tumor size reaches 150-300 mm^3, randomize animals and group into groups of 4-7 animals. Prepare test compound in an appropriate vehicle (e.g. vehicle can be 20% Captisol® in sterile water) and administer subcutaneously for three consecutive days followed by a four day dosing holiday and repeat for a minimum of four weeks. Tumor response is determined by tumor volume measurement performed twice per week during the course of treatment.
The vehicle used in this study is 20% Captisol® in sterile water and is administered subcutaneously for three consecutive days followed by a four day dosing holiday and repeated for a minimum of four weeks. […] The treatment period lasts 4 weeks.
Test [2] relates to HT-29 cells. The experiment in a line: ECtfs (Two-Fold Sensitization) Assay. The format is cell-based. The conditions noted are these: gemcitabine alone. On the procedure:
An inhibitor of CHK1 can potentiate the anti-proliferative activity of gemcitabine (or other cytotoxics) through abrogation of the intra-S phase checkpoint, resulting in sustained and increased DNA damage. The capacity for continued tumor cell proliferation after DNA damage can be analyzed by determining the ability of cells to replicate their DNA. […] In this assay, cells are treated with gemcitabine, and then with the compound of Example 2. Following a recovery period, cells are assayed for the ability to incorporate radioactive thymidine into DNA during S phase. The ECtfs parameter is a measure of the concentration of a CHK1 inhibitor necessary to reduce by half the GI90 concentration of gemcitabine, measured in this assay in the absence of CHK1 inhibition. HT-29 cells (obtained from ATCC), are grown in RPMI 1640 plus (Gibco™) 10% (v/v) heat inactivated FBS. These cells are plated at 1.3×10^3 per well on Corning Costar 96-well tissue culture plates. After plating the cells, the tissue culture plates are held at room temperature for 45 minutes, before returning to 37° C. Plates are incubated for 24 hours prior to gemcitabine addition. Before gemcitabine addition, medium is removed from all wells and replaced with 150 μL per well of fresh RPMI medium. Gemcitabine stocks at 10 mM are prepared in PBS. Gemcitabine dilutions were prepared at 4× concentrations in RPMI medium and added to wells at 50 μL per well. The highest final concentration of gemcitabine used is 80 μM and dilutions proceed by four-fold steps. Two hours later, gemcitabine-containing medium is removed from the wells and replaced with 150 μL per well of fresh RPMI medium. […] The volume of addition is 50 μL. Compound dilutions proceed by two-fold steps, starting at 5000 nM. […] Twenty μL of this solution is added to each well, yielding 1 µCi/well of ^3H-thymidine. Cells are labeled for twenty-two hours. The medium containing ^3H-thymidine is thoroughly removed from the wells. The plates are then frozen at −20° C., for several hours. To harvest the DNA containing incorporated ^3H-thymidine, plates are thawed for several minutes, and then 120 μL per well of 0.1 N NaOH is added to each well. Each plate is then incubated at 37° C., with slow mixing on a rotator, for 10 minutes. DNA is harvested with a Filtermate 196 Harvester (PerkinElmer) and collected on 96-well Unifilter GF/C plates (PerkinElmer #6005174). The wells of the tissue culture plate on which cells had been labeled are washed with water (5×). The Unifilter plate membranes are washed with an additional 4.5 mL per well (3×1.0 mL and finally a 1.5 mL wash). The Unifi is sealed with a Backseal adhesive sheet (PerkinElmer), and the 50 μL/well of MicroScint-20 (Perkin Elmer) is added. Each plate is then sealed with a Topseal clear adhesive sheet (PerkinElmer). Plates are counted on a Topcount scintillation counter (PerkinElmer), at 1 minute per well. ^3H-thymidine counts per minute (cpm) are exported into Prism (GraphPad) for analysis and plotting. […] For plotting the data in Prism, the gemcitabine concentrations are transformed to log values, and dose-response curves are fit by non-linear regression. Neither top nor bottom fits are constrained. The ECtfs value is 0.3 nM.

Take `COc1cccc2c1C(=O)c1c(O)c3c(c(O)c1C2=O)C[C@@](O)(C(=O)CO)C[C@@H]3O[C@H]1C[C@H](N)[C@H](O)[C@H](C)O1` [Doxorubicin, reference compound]: the “% T/C” value in test [1] (comparator day 56) was 16%.
Broadly, the EC50 is the midpoint of the concentration-response curve. Consider `Nc1ccn([C@@H]2O[C@H](CO)[C@@H](O)C2(F)F)c(=O)n1` [gemcitabine, reference compound], for which, in test [2] (HT29 cells), the “percentage of proliferation inhibition” value is on record as 52%. For the same compound, the EC50 in test [2] (Homo sapiens, HT-29, HT29 colon carcinoma cells) is 0.037 µM.
`O=P1(NCCCl)OCCCN1CCCl` (centres unmarked) [ifosphamide, reference compound]: the “% T/C” value in test [1] (comparator day 46) worked out at 34%.
Still for that read-out and setting: the value for `CCc1c2c(nc3ccc(OC(=O)N4CCC(N5CCCCC5)CC4)cc13)-c1cc3c(c(=O)n1C2)COC(=O)[C@]3(O)CC` [irinotecan, reference compound] was 12%.
